Laboratory results from article PMC12461627, “Locking CBL TKBD in its native conformation presents a novel therapeutic opportunity in mutant CBL-dependent leukemia” (Molecular Therapy, 2025).
Where two headings read alike, the source gives them in different places. Square brackets hold non-standard residues; d marks the D form. Ends that are not written are not given here. pY = N[C@@H](Cc1ccc(OP(=O)(O)O)cc1)C(=O)O

Key:
[1] = system: CBL mutant 70Z; assay: GFP-trap co-immunoprecipitation with Myc-tagged CBL-70Z in HEK293 cells; type: cell-based; settings: expressed as GFP-CBLock variants in HEK293 cells
Description: The cells were pelleted and lysed in IP lysis buffer (50 mM Tris-HCl pH 7.5, 150 mM NaCl, 1 mM EDTA, 1% IGEPAL CA-630, 10% glycerol, 0.5 mM DTT, and cOmplete protease inhibitor cocktail) to prepare the whole cell lysates. Immunoprecipitation and immunoblotting were performed using the lysates as described before.[28] For each regular immunoprecipitation reaction, 1 mg freshly prepared whole cell lysate was incubated with primary antibodies at 4 °C for 4 h on a rotatory shaker. […] Alternatively for each reaction, 1 mg freshly prepared whole cell lysate was incubated overnight with antibody- or immunoglobulin (Ig)G-conjugated agarose beads. The next day beads were washed three times with IP lysis buffer and once with PBS. […] This was followed by similar washing steps as mentioned before. The beads were then either processed for mass spectrometry or immunoprecipitated proteins were eluted at 95 °C in 40 μL 2X loading dye. A previous method was used to perform immunoblotting[51] and the immunoblots were scanned using an Odyssey CLx Imaging System (LI-COR Biosciences).

[2] = system: CBL (47–435) R139C/D435C variant (diCys); assay: Disulfide bond formation assay; type: biochemical; settings: CBL 47–435 diCys, SDS-PAGE, n = 3
Description: CBL variant mixtures were prepared at room temperature as described previously,[7] keeping aside a sample portion for zero-time point. Removal of DTT using a Zeba spin desalting column (Thermo Scientific) initiated the reactions. At indicated time points, samples were removed and quenched with 20 mM N-ethylmaleimide (NEM; Sigma) for 10 min and mixed with 4X SDS loading buffer. DTT (100 mM) was added to prepare the reduced samples. The samples were resolved by SDS-PAGE and the gels stained with Coomassie blue were scanned. The disulfide-bonded (D) and unmodified species (U) were quantified using the Image Studio software. Three independent experiments were performed, and curves for the disulfide bond fractions from each reaction were generated using GraphPad Prism.

[3] = system: MOLM-13Luc/CBLock cells in NSG mice
[4] = Solubility as noted by the authors; type: physicochemical; settings: qualitative, aqueous solution

Row | Molecule | Binding to CBL mutant 70Z [1] | Effect on diCys disulfide bond formation [2] | other results
1 | IKDWQDRSVWESMTME [CBLock-Sc2] | failed to bind the CBL mutant 70Z | – | –
2 | TLNSDG(p)YTPEPA [pZAP70, phosphotyrosine substrate peptide from ZAP70] | – | prevented formation of the diCys disulfide bond | –
3 | SMEKTDQWRMVEIDSW [CBLock-Sc1] | failed to bind the CBL mutant 70Z | – | –
4 | STVSFNP[pY]EPTGGPWG [pSYK, phosphotyrosine substrate peptide from SYK] | – | prevented formation of the diCys disulfide bond | –
5 | CBLock-DM: CBLock mutant D7A/I10A expressed as GFP or iRFP fusion (MTVEEMASWAKSWDQR; also: fused to GFP or iRFP) | failed to bind the CBL mutant 70Z | – | –
6 | CC[C@H](C)[C@H](NC(=O)[C@H](Cc1c[nH]c2ccccc12)NC(=O)[C@H](CO)NC(=O)[C@H](CC(=O)O)NC(=O)[C@H](CCSC)NC(=O)[C@H](CCC(=O)O)NC(=O)[C@H](CCC(=O)O)NC(=O)[C@@H](NC(=O)[C@@H](NC(=O)[C@@H](N)CCSC)[C@@H](C)O)C(C)C)C(=O)N[C@@H](CCCCN)C(=O)N[C@@H](CO)C(=O)N[C@@H](Cc1c[nH]c2ccccc12)C(=O)N[C@@H](CC(=O)O)C(=O)N[C@@H](CCC(N)=O)C(=O)N[C@@H](CCCNC(=N)N)C(=O)O [CBLock] | – | – | Body weight ([3]; cohort two): no marked changes in body weights; Body weight ([3]; first experiment, dox vs vehicle): no obvious difference in body weight; Solubility [4]: enhanced solubility in aqueous solution
